Four compounds from patent US20260048047A1, “SMALL-MOLECULE ACTIVATORS OF MYCOBACTERIUM TUBERCULOSIS ADENYLYL CYCLASE” (priority 2022, published 2026) can be followed below.

Values after ≈ are worked out from the molar mass of the structure shown. “Also recorded” adds a separate entry of the source. Like-named read-outs stand apart in the source and are kept apart here.

Data set [1] relates to Mtb cholesterol degradation. In words: Catabolic release of 14CO2 from radiolabelled lipid by Mtb. In kind it is cell-based, Mycobacterium tuberculosis. How it is done:
Because V-59 impairs growth of Mtb in cholesterol media, whether using V-59 to chemically activate Rv1625c inhibits the bacterium's ability to break down cholesterol was tested. When Mtb degrades the A-ring of [4-^14C]-cholesterol, [1-^14C]-pyruvate is released; subsequently, pyruvate dehydrogenase activity mediates the conversion of [1-^14C]-pyruvate into acetyl-CoA and ^14CO2. Therefore, to quantify cholesterol degradation in Mtb, ^14CO2 released following [4-^14C]-cholesterol breakdown by the bacteria was captured.

Data set [2] relates to Mtb. The data set is described as follows: Mtb growth inhibition in standard rich growth media (7H9 OADC) or acetate media. It is filed as cell-based, Mycobacterium tuberculosis. The note with it: media containing acetate.
For data set [3], the system named is M. tuberculosis. In words: Extracellular activity against M. tuberculosis in cholesterol media (Alamar Blue reduction assay). It is filed as cell-based, Mycobacterium tuberculosis.
For data set [4], the target named is T1, Rv1625c (Mycobacterium tuberculosis, UniProt P9WQ35).
T1 construct: endogenous in cells; host or cells: whole Mycobacterium tuberculosis (WT; CompFull = ΔRv1625c complemented with the entire rv1625c gene)
T1 sequence (P9WQ35 1-443): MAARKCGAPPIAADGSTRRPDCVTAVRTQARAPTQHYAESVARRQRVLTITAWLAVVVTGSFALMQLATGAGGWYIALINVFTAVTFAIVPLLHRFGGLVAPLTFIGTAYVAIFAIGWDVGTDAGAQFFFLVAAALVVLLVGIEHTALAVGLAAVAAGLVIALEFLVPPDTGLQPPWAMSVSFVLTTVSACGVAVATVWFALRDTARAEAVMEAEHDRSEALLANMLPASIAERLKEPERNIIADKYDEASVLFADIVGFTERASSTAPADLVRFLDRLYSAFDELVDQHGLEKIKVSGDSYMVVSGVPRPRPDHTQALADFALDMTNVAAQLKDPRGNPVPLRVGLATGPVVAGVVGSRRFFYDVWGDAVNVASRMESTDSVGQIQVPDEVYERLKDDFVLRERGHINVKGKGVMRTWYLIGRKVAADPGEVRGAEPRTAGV
In kind it is cell-based.

The subject of data set [5] is Mtb. The data set is described as follows: Chronic Mtb infection in C3HeB/FeJ mice. The note with it: infected and treated in the same manner. In kind it is in vivo.
Data set [6] concerns prpD'::GFP reporter. It is filed as cell-based, Mycobacterium tuberculosis. The note with it: V-59 10 μM.
Data set [7] can be described thus: Plasma exposure over the cholesterol-media EC50 after oral dosing in mice. It is filed as in vivo.
Data set [8] has as its system mammalian AC enzymes. Particulars: human cell lines, 10 μM.
For data set [9], the system named is Mtb. In kind it is in vivo, BALB/c mice. Particulars: for Reduction in lung CFUs: mouse, in vivo.
For data set [10], the system named is Mtb in macrophages. The data set is described as follows: Inhibition of Mtb replication in macrophages (intramacrophage EC50). In kind it is cell-based, Mycobacterium tuberculosis.
A short description of data set [11]: Mouse plasma protein binding.
A short description of data set [12]: Extraction ratio, mouse. The note with it: Table S2.
Data set [13] concerns the target hERG (Homo sapiens, UniProt Q12809). In words: in vitro. In kind it is biochemical. The note with it: Table S2.
Data set [14] in a line: Extraction ratio, human. Particulars: Table S2.
The nature of data set [15]: Caseum binding.
The nature of data set [16]: Solubility at pH 6.8. Particulars: pH 6.8, aqueous buffer.
Data set [17] deals with Mtb H37Rv. The data set is described as follows: MIC determination in Mtb H37Rv (MABA, 7H12-Cholesterol media). In kind it is cell-based. Particulars: Mycobacterium tuberculosis, two batches. The procedure:
MIC Determination in Mtb H37Rv
The minimum inhibitory concentration (MIC) of the test compounds were determined using ten-point, two-fold serial dilutions in 7H12-Cholesterol media using Microdilution Alamar Blue Assay (MABA) as previously described (Cho et al., 2015; VanderVen et al., 2015). Briefly, Mycobacterial cells at the mid-logarithmic phase of growth were diluted (1:1,000). Twenty μl of this dilution was added to each well containing 2-fold serially diluted test compounds and incubated for 7 days at 37° C. Alamar Blue (Invitrogen) reagent (4 μL per well) was added along with 20% Tween 80 (2.5 μL per well, Sigma Aldrich) to evaluate bacterial cell viability. Plates were read 24 h after adding Alamar Blue at absorbance 570 nm with a reference wavelength of 600 nm.

Data set [18] relates to non-replicating M. tuberculosis. In words: Hu Coats 100-day old culture model. The note with it: for Cidal activity compared to the NixTB combination: with Pretomanid and Bedaquiline.
Data set [19] has as its system Mtb H37Ra. Particulars: read-out: IC50 against Mtb H37Ra in cholesterol media.
The subject of data set [20] is Mtb H37Rv (Mtb-lux) inside PMA-differentiated THP-1 cells. In words: Intramacrophage activity in THP-1 cells. In kind it is cell-based, Mycobacterium tuberculosis.
In data set [21] the test system is Mtb. The data set is described as follows: Checkerboard combination assay with known anti-TB drugs (FIC index). Particulars: nine anti-TB drugs. It is filed as cell-based, Mycobacterium tuberculosis. From the text: Combination Testing of mCLB073 with Known Anti-TB Drugs
To test for interactions between mCLB073 and known anti-tubercular drugs in combination in an in vitro growth assay, a checkerboard assay to test for interactions between mCLB073 and drugs with known anti-TB activity using Alamar Blue as a viability marker (Lechartier et al., 2012) was used. Drug combinations were categorized based on fractional inhibitory concentration (FIC) index of FIC≤0.5 as synergistic, 0.5<FIC≤1 as additive, 1<FIC≤4 as no interaction and FIC ≥4 as antagonism (Hall et al., 1983).
Performed were synergy studies between mCLB073 and nine anti-TB drugs: Moxifloxacin (MOXI), Isoniazid (INH), Rifampicin (RIF), Streptomycin (STR), Levofloxacin (LEV), Linezolid (LIN), Ethionamide (ETH), Pretomanid (PA-824), and Bedaquiline (BDQ). A checkerboard titration in a microtiter plate was used as previously described (Hsieh et al., 1993).

The subject of data set [22] is Mtb inside J774.1 macrophages. The data set is described as follows: Intramacrophage activity in J774.1 cells. It is filed as cell-based, Mycobacterium tuberculosis.

hERG, sequence (Q12809 whole entry): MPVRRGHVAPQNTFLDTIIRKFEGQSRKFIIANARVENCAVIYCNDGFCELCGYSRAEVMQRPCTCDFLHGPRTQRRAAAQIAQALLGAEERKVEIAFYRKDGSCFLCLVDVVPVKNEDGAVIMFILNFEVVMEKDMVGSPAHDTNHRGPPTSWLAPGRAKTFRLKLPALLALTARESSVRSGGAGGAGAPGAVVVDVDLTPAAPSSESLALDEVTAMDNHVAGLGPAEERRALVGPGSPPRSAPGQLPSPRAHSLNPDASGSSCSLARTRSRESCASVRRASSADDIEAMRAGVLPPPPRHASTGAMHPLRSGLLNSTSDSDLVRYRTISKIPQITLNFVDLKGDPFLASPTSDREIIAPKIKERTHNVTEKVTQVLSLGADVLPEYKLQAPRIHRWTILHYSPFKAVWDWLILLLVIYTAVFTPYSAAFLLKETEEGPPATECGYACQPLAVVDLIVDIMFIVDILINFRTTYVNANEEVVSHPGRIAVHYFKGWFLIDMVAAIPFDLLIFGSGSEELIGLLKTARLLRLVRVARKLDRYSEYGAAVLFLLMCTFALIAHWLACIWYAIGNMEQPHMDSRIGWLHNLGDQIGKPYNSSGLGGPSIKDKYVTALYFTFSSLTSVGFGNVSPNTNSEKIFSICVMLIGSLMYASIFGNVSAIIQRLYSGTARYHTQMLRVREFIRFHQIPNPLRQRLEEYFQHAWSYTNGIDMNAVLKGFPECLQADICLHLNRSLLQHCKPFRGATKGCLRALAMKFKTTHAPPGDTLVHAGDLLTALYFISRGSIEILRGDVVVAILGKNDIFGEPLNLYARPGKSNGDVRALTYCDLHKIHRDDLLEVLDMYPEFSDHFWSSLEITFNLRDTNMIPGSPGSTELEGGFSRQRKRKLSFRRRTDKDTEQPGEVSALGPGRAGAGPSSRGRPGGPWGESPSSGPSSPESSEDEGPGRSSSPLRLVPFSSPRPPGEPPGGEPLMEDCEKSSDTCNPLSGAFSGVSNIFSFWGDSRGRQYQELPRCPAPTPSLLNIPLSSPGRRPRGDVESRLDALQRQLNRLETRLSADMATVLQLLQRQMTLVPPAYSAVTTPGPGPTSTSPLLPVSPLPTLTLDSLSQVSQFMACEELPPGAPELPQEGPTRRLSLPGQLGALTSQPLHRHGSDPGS

As for `Cc1nonc1CC(=O)N1CCC(n2nnc(-c3ccc(F)cc3)n2)CC1` [Compound V-59, 1-(4-(5-(4-fluorophenyl)-2H-tetrazol-2-yl)piperidin-1-yl)-2-(4-methyl-1,2,5-oxadiazol-3-yl)ethan-1-one], the “Decrease of 14CO2 release from [4-14C]-cholesterol” value in data set [1] (WT Mtb) was roughly 89%. The “Effect on 14CO2 release from [U-14C]-palmitate” value in data set [1] (fatty acid breakdown) is on record as “no measurable effect”. Also, the “Inhibition of Mtb growth in acetate media or standard rich growth media” value in data set [2] is “not”. The EC50 in data set [3] (Mycobacterium tuberculosis, read-out: EC50, inhibition of Mtb growth in cholesterol media) turned out to be 700 nM; in data set [10] (Mycobacterium tuberculosis, Macrophage, read-out: EC50, inhibition of Mtb replication in macrophages), 300 nM. Also, the “cAMP induction in WT Mtb” value in data set [4] is recorded as roughly 70 fold. Moreover, in data set [4] (CompFull strain), the “cAMP induction in CompFull Mtb” value is on record as roughly 140 fold. Moreover, the “Reduction in lung CFUs” value is recorded as roughly 0.5 log10 in data set [5] and roughly 0.4 log10 in data set [9] (po, 50 mg/kg). The “Decrease of prpD'::GFP signal in CompFull” value in data set [6] (CompFull strain) is recorded as roughly 90%. For the same compound, in data set [6] (WT), the “Decrease of prpD'::GFP signal in WT” value is roughly 50%. Also, in [7] (oral dosing in mice at 20 mg/kg), the “Plasma exposure above the EC50 (cholesterol media)” value is “approximately 24 hours”. Also, the “Activation of ACs in mammalian cells” value in data set [8] is reported as “No evidence”. Besides, the “Reduction of extent of lung inflammation” value in data set [9] (BALB/c, 50 mg/kg oral once-daily, weeks 4-8) is roughly 50%.
In the case of `Cn1ncnc1CC(=O)N1[C@@H]2CC(c3nc(-c4ccc(Cl)c(Cl)c4)no3)C[C@H]1C2` (stereo partly shown) [drawing 4], the fraction unbound in data set [11] is 0.022; in [15], less than 0.0001. Besides, the “ER mouse/human: mouse” value in [12] is given as <0.3/<0.3. Besides, in [13], 11800 nM corresponded to half-maximal inhibition (IC50). Also, in [14], the “ER mouse/human: human” value is listed as <0.3/<0.3. The same compound yielded a solubility in [16] of 94 µM (≈ 40.7 µg/mL).
`Cn1ncnc1CC(=O)N1CCC(c2nc(-c3ccc(Cl)c(Cl)c3)no2)CC1` [mCLB073, 1-(4-(3-(3,4-dichlorophenyl)-1,2,4-oxadiazol-5-yl)-1-piperidinyl)-2-(2-methyl-2H-1,2,4-triazol-3-yl)-1-ethanone] displayed an MIC90 in data set [17] of 0.28 µM (≈ 0.118 µg/mL). Further, in data set [18] (100-day-old culture, alone), the “Efficacy when tested individually” value is recorded as “no efficacy”. Further, the “Activity in combination versus NixTB combination” value in [18] (Pretomanid 20.87 μM, Bedaquiline 2.25 μM, test drug 20, 8, 1 μM) is reported as “comparable”. In addition, in data set [18] (added to PB, 50 μM), the “CFU reduction versus PB” value is reported as “superior CFU reduction”. Besides, the “Cidal activity compared to the NixTB combination” value in data set [18] (50 μM) was “complete sterilization; also recorded: two log units better”; in data set [18] (all compounds at 20 μM) it was “one-log improvement”. In addition, in data set [19], the IC50 was 30.1 nM. Besides, the “Sinf (maximum inhibition), THP-1” value in data set [20] amounted to 76.8%. Also, the EC50 is 40 nM in [20] (Mycobacterium tuberculosis, H37RV, THP-1, 72 h, luminescence, day 3, read-out: EC50, growth of Mtb inside PMA-differentiated THP-1 cells) and 50 nM in data set [22] (Mycobacterium tuberculosis, J774.1, 72 h, luminescence, day 3, read-out: EC50, growth of Mtb inside J774.1 macrophages). Besides, the “Antagonism with known anti-TB drugs” value in [21] is recorded as “did not display any antagonism”. Also, the “Plasma exposure over the EC50 identified in cholesterol media” value in data set [7] (dosed orally in mice) is listed as “at least 24 hours”. Moreover, the “Sinf (maximum inhibition), J774.1” value in [22] amounted to 42.1%. The “Decrease of extent of lung pathology” value in data set [9] (BALB/c, 30 mg/kg oral once-daily, weeks 4-8) was roughly 45%. Besides, the “Lung bacterial burden when added to sub-optimal rifampicin” value in [9] (BALB/c, 30 mg/kg plus sub-optimal dose of rifampicin) is given as “did not increase the bacterial burden”. The “Reduction in lung CFUs” value in data set [9] (5 mg/kg) is on record as roughly 0.4 log10; in [9] (po, 30 mg/kg), roughly 0.4 log10.
In the case of `Cn1ncnc1CC(=O)N1[C@@H]2CC(c3nc(-c4ccc(Cl)c(Cl)c4)no3)C[C@H]1C2` (stereo partly shown) [mCLF025], the EC50 was greater than 30000 nM in data set [3] (Table S2, read-out: Cholesterol EC50) and greater than 30000 nM in data set [10] (Table S2, read-out: Macrophages EC50). For the same compound, in data set [3] (Table S2 assays), the “Potency of trans isomer in words” value is “inactive”.
